Measurements published in patent US20250000837A1, “METHOD FOR TREATING RETINAL DEGENERATION” (SMILEBIOTEK ZHUHAI LIMITED, priority 2021, published 2025).

Columns and labels:
[1] = test system: Crb1^rd8/rd8 mouse suffering from fundus degenerative retinopathy; assay: Intragastric administration therapy of Crb1^rd8/rd8 mouse suffering from fundus degenerative retinopathy; count of fundus light spots; assay type: in vivo; conditions: for Eyes with slight decrease of crystalline lens transparency (fundus light spots cannot be observed clearly): 0.3 g/kg intragastric; for Change of spots 4 weeks after drug administration / Change of spots 2 weeks after drug administration: change of number of fundus light spots, Crb1^rd8/rd8 mouse, mean ± s; for Change of spots 4 weeks after drug administration: 0.3 g/kg intragastric once every other day for 4 weeks, P = 0.0005 vs model control group; for Change of spots 2 weeks after drug administration: 0.3 g/kg intragastric once every other day, P = 0.1518 vs model control group
Method: The mouse is anaesthetized and pupils are dilated. A cornea remains moist by applying hydroxypropyl methylcellulose eye drops regularly. A mouse fundus photo is obtained by using a Micron IV mouse fundus camera (Phoenix Research Laboratories, Inc., Pleasanton, CA, USA).
When a sample for test is prepared, 4 mL of castor oil which is already autoclaved is measured, 1.2 g of compound 6 powder is weighted, 1-2 mL of castor oil is added, full grinding is performed, a ground drug and residual castor oil are all transferred to a 50 mL tube with 36 mL ultrapure water to be oscillated and uniformly mixed for still standing overnight, so a compound 6 suspension with a concentration being 30 mg/mL is prepared, and the prepared drug liquid is labeled, saved at a normal temperature and used up within a month.
• Species and strains: Crb1^rd8/rd8 mouse • Grade: SPF grade • Quantity and gender: 18 mice, either gender • Weight range: 16-24 g • Supply unit: Gempharmatech Co., Ltd.
When drug administration starts, a healthy one-month-old Crb1^rd8/rd8 mouse is selected for an experiment.
Animals are hierarchically divided according to weights and then randomly divided into a model control group and a compound 6 group.
Drug administration route and method: intragastric administration, 10.0 mL/kg weight
Drug administration frequency and time limit: once every other day, for 4 weeks
Dosage of the compound 6 is 0.3 g/kg weight for the mouse and is converted according to previous clinical medication.
One-month-old Crb1^rd8/rd8 mice are randomly divided into the model control group and the compound 6 drug administration group. A solvent or a compound 6 drug is administered intragastrically to the animals, a dosage of the compound 6 is 0.3 g/kg, once every other day, continuous drug administration for 4 weeks. The number of fundus light slots 2 weeks and 4 weeks after the mouse is administered intragastrically is recorded for analysis and comparison.
A change of the number of fundus light spots of the mice at each time point after drug administration is used as a parameter, and SPSS software is used for the statistic analysis. A statistical result is represented by X+s; and an inspection level=0.05, and an average of experiment data and statistically processed data remain 2 decimal places.

[2] = test system: drusen-like lesion in retinal tissue of a macaque; conditions: administered to vitreous humor; cited from earlier work

With `CCCCCCCCOC(=O)c1cc(O)c(O)c(O)c1` [Compound 6, octyl gallate] the “Inhibition of fundus degenerative retinopathy” value ([1]; Crb1^rd8/rd8 mice, dosage of 0.3 g/kg) was “effectively inhibit”, the “Eyes with slight decrease of crystalline lens transparency (fundus light spots cannot be observed clearly)” value ([1]; Week 2 of the experiment, attributed to anesthesia, correlation with compound not excluded) was 2/18 and the “Eyes with slight decrease of crystalline lens transparency (fundus light spots cannot be observed clearly)” value ([1]; Week 4 of the experiment, 1/18 eye also in model control group) was 1/18. The “Change of spots 4 weeks after drug administration” value [1] was −3.63 ± 4.06, the “Change of spots 4 weeks after drug administration” value ([1]; listed as compound 6) was −3.63±4.06 and the “Change of spots 2 weeks after drug administration” value [1] was 1.31 ± 3.18. For the same molecule, the “Change of spots 2 weeks after drug administration” value ([1]; listed as compound 6) was 1.31±3.18.
In the case of `CN[C@H](CC(C)C)C(=O)N[C@H]1C(=O)N[C@@H](CC(N)=O)C(=O)N[C@H]2C(=O)N[C@H]3C(=O)N[C@H](C(=O)N[C@H](C(=O)O)c4cc(O)cc(O)c4-c4cc3ccc4O)[C@H](O)c3ccc(c(Cl)c3)Oc3cc2cc(c3O[C@@H]2O[C@H](CO)[C@@H](O)[C@H](O)[C@H]2O[C@H]2C[C@](C)(N)[C@H](O)[C@H](C)O2)Oc2ccc(cc2Cl)[C@H]1O` [vancomycin], the “Size of the drusen-like lesion in retinal tissue compared with a control” value [2] is listed as “reduce a size of the drusen-like lesion”.
